Reference: US4816447A, “Anti-viral guanine compounds” (priority 1984, dated 1989)
Read-outs that look alike come from different tables or passages of the source.

Key:
[1] = Comparative solubilities in pH 7.2 buffer at 25°; type: physicochemical
Experimental: Comparative Solubilities in pH 7.2 Buffer at 25°
Solubilities were determined by suspending an excess amount of the compound in approximately 0.15 molar phosphate buffer (pH 7.2) and shaking overnight in a water bath at 25° to give a saturated solution. The concentration of the compound in the filtered solution was calculated on the basis of spectrophotometric measurements, i.e. comparison of the ultraviolet absorbance at the λmax for the saturated solution with the absorbance value observed for a known concentration of the compound.

[2] = tested on: guanosine monophosphate kinase and extract of HSV1-infected HeLa cells; type: biochemical; conditions: gmp kinase, 4 h
Experimental: To the rest of the incubation mixtures were now added 0.04 units of guanosine monophosphate kinase and 20 μl of an extract of HSV1-infectedHeLa cells [The cells were infected with the virus at a multiplicity of 10 and harvested 8 hours later; they were suspended in a solution containing 0.35M KH2 PO4, pH 7.5, 0.5 mM dithiothreitol, 0.2% polyoxyethylene(9)octylphenol (Nonidet P-40), 14% glycerol at 50 mg/ml and after 30 minutes at 4° were centrifuged at […]; the supernatant liquid was the crude extract.] Incubation was continued at 30° for 4 more hours, after which samples were analyzed by HPLC and the amount of the triphosphate derivatives of each compound determined by integration of the area under the respective chromatographic peak.

[3] = tested on: Herpes simplex virus type I (HSV-1), strain Schooler; assay: Treatment of Herpes simplex virus infection in mice, intraperitoneal HSV-1, subcutaneous treatment (Table II); type: in vivo, HSV-1; ICR/Ha mice; conditions: for Percent Survival: at 15 days
[4] = tested on: Herpes simplex virus; assay: Plaque inhibition, Herpes simplex virus on MRC5 cells (Table V); type: cell-based, Herpes simplex virus; MRC5 (human diploid lung) cells
[5] = tested on: human cytomegalovirus, strain AD169; assay: Plaque inhibition, cytomegalovirus on MRC5 cells (Table V); type: cell-based, human cytomegalovirus; MRC5 (human diploid lung) cells
[6] = tested on: Varicella-Zoster virus, strain KMcC; assay: Plaque inhibition, Varicella Zoster virus on MRC5 cells (Table V); type: cell-based, Varicella-Zoster virus; MRC5 (human diploid lung) cells
[7] = tested on: Vaccinia; assay: microbe, parasite or virus in culture; type: cell-based, vaccinia; MRC5 (human diploid lung) cells; conditions: for EC50: Orthopoxvirus vaccinia, MRC5, read-out: ED50, concentration required for 50% plaque inhibition
[8] = tested on: Adeno Type 2; assay: Plaque inhibition, Adeno Type 2 on BSC cells (Table V); type: cell-based, Adeno Type 2; BSC (monkey) cells; conditions: for EC50: Primates, read-out: ED50, concentration required for 50% plaque inhibition, Adeno Type 2, BSC
Experimental: ED50 values developed for the cyclic monophosphate are compared on a weight basis to those established for the compound of Formula II and acyclovir.
Adeno Type 2 was assayed on BSC (monkey) cell cultures.

[9] = tested on: HSV-1; assay: In vitro activity against HSV-1 with and without added thymidine; type: cell-based; conditions: for EC50: read-out: ED50 (the source's name)
[10] = tested on: HSV-1 (383R1); assay: Protection of mice against intraperitoneal infection with HSV-1 (383R1) (Table IX); type: in vivo, HSV-1; mice; conditions: for Mean Survival Time (± SD): HSV-1 (383R1), s.c. twice daily, 4 days; for efficacy against HSV-1 (383R1) relative to wild type HSV-1: mouse, in vivo
Experimental: 1. […] Groups of mice infected intraperitoneally with increasing doses of HSV-1 or HSV-1 (383R1) were treated twice daily subcutaneously for 4 days with either the Cyclic Monophosphate or the compound of Formula II. Mean survival times of treated mice were compared.

[11] = tested on: Herpes simplex virus type 1; assay: Intraperitoneal Herpes simplex type 1 infection in mice, oral treatment (Table XI); type: in vivo, Herpes simplex type 1; ICR/Ha mice; conditions: for Percent Survival: at 13 days
Excerpt: ICR/Ha mice were infected as described in Example 36. […] These animals served as toxicity controls.

[12] = tested on: Herpes simplex virus type 2 (Strain Curtis); assay: Vaginal Herpes simplex virus type 2 infection in mice, oral treatment (Table XII); type: in vivo, Herpes simplex virus type 2; ICR/Ha female mice; conditions: for Percent Survival: at 19 days
Experimental: Groups of 10 animals were treated twice daily for ten days by oral gavage using acycloquanosine or the compound of formula II at final daily doses of 50, 12.5, 3.1, 0.8 or 0.2 mg/kg starting immediately following infection. The average number of days to infection and the average days of survival were determined for each group and compared to an infected, placebo-treated group.

[13] = tested on: HSV-2 TS6; conditions: HSV-2 Ts6
[14] = tested on: HSV-2 TS6; assay: microbe, parasite or virus in culture; conditions: Human alphaherpesvirus 2, read-out: ED50
[15] = tested on: HSV-1 wild type Strain 17; assay: Drug sensitivity of HSV-1 wild type Strain 17; conditions: Human alphaherpesvirus 1, read-out: ED50
[16] = tested on: Recombinant 6-26; assay: Drug sensitivity of HSV-1/HSV-2 intertypic Recombinant 6-26; conditions: read-out: ED50
[17] = tested on: Recombinant 6-30; assay: Drug sensitivity of HSV-1/HSV-2 intertypic Recombinant 6-30; conditions: read-out: ED50
[18] = tested on: Recombinant 6-34; assay: Drug sensitivity of HSV-1/HSV-2 intertypic Recombinant 6-34; conditions: read-out: ED50
[19] = tested on: Recombinant 6-19; assay: Drug sensitivity of HSV-1/HSV-2 intertypic Recombinant 6-19; conditions: read-out: ED50
[20] = Human alphaherpesvirus 1, absence of thymidine
[21] = Human alphaherpesvirus 1, presence of thymidine (20 μg/ml)

In the case of `Nc1nc2c(ncn2COC(CO)CO)c(=O)[nH]1` [Compound of Formula II, 9-(1,3-Dihydroxy-2-propoxymethyl)guanine], the solubility ([1]; aqueous buffer, pH 7.2 phosphate buffer, 25°) was 2800 µg/mL, the “converted to the triphosphate” value [2] was 93% and the “Avg. Survival Time” value ([3]; 3.1 mg/kg/day s.c.) was 12.5 days. For the same molecule, the “Percent Survival” value ([3]; 3.1 mg/kg/day s.c.) was 53%, the “Avg. Survival Time” value ([3]; 12.5 mg/kg/day s.c.) was 14.1 days and the “Percent Survival” value ([3]; 12.5 mg/kg/day s.c.) was 73%. For the same molecule, the “Avg. Survival Time” value ([3]; 50 mg/kg/day s.c.) was 19.1 days, the “Percent Survival” value ([3]; 50 mg/kg/day s.c.) was 100% and the EC50 ([4]; read-out: ED50, concentration required for 50% plaque inhibition, Herpes simplex virus, MRC5) was 0.2 µg/mL. For the same molecule, the “more active than acyclovir” value [5] was “approximately 10 fold”, the EC50 ([5]; Human betaherpesvirus 5, AD169, read-out: ED50, concentration required for 50% plaque inhibition, Cytomegalovirus, MRC5) was 0.8 µg/mL and the EC50 ([6]; Human alphaherpesvirus 3, read-out: ED50, concentration required for 50% plaque inhibition, Varicella Zoster virus, MRC5) was 3 to 6 µg/mL. The EC50 [7] was 50 to 100 µg/mL, the EC50 [8] was 50 µg/mL and the “reduction of antiviral activity by thymidine” value ([9]; 20 μg thymidine/ml) was “greater than 15 fold”. For the same molecule, the EC50 [9, 20] was 0.8 to 1.6 µg/mL, the EC50 [9, 21] was 25 µg/mL and the “Mean Survival Time (± SD)” value [10] was 9.05 (0.80). For the same molecule, the “efficacy against HSV-1 (383R1) relative to wild type HSV-1” value [10] was “significantly lower”, the “Avg. Survival Time” value ([11]; 0.2 mg/kg/day oral) was 6.8 days and the “Percent Survival” value ([11]; 0.2 mg/kg/day oral) was 0%. For the same molecule, the “Avg. Survival Time” value ([11]; 0.8 mg/kg/day oral) was 8.5 days, the “Percent Survival” value ([11]; 0.8 mg/kg/day oral) was 20% and the “Avg. Survival Time” value ([11]; 3.1 mg/kg/day oral) was 11.7 days. For the same molecule, the “Percent Survival” value ([11]; 3.1 mg/kg/day oral) was 50%, the “Avg. Survival Time” value ([11]; 12.5 mg/kg/day oral) was 13.9 days and the “Percent Survival” value ([11]; 12.5 mg/kg/day oral) was 80%. For the same molecule, the “Avg. Survival Time” value ([11]; 50 mg/kg/day oral) was 16.9 days, the “Percent Survival” value ([11]; 50 mg/kg/day oral) was 100% and the “extension of survival time vs placebo” value ([11]; 50, 12.5, 3.1 and 0.8 mg/kg daily) was “statistically significant extension of survival time”. The survival vs placebo ([11]; 50 and 12.5 mg/kg groups) was “statistically significantly longer”, the “overt toxicity, final weight of test animals” value ([11]; oral, twice daily for 7 days) was “no evidence of overt toxicity” and the “relative potency to acycloguanosine” value ([11]; statistically significant) was 50.3. The “Avg. Survival Time” value ([12]; 0.2 mg/kg/day oral) was 12.1 days, the “Percent Survival” value ([12]; 0.2 mg/kg/day oral) was 30% and the “Avg. Survival Time” value ([12]; 0.8 mg/kg/day oral) was 15.1 days. For the same molecule, the “Percent Survival” value ([12]; 0.8 mg/kg/day oral) was 40%, the “Avg. Survival Time” value ([12]; 3.1 mg/kg/day oral) was 19.1 days and the “Percent Survival” value ([12]; 3.1 mg/kg/day oral) was 75%. For the same molecule, the “Avg. Survival Time” value ([12]; 12.5 mg/kg/day oral) was 24.7 days, the “Percent Survival” value ([12]; 12.5 mg/kg/day oral) was 100% and the “number of days to infection vs placebo” value ([12]; 50 mg/kg and 12.5 mg/kg) was “statistically significant increases in the number of days to infection”. The “signs of herpetic infection” value ([12]; 50 mg/kg, duration of the test) was “remained free of signs of herpetic infection”, the “Avg. Survival Time” value ([12]; 50 mg/kg/day oral) was 24.7 days and the “Percent Survival” value ([12]; 50 mg/kg/day oral) was 100%. For the same molecule, the “survival time vs placebo” value ([12]; 50, 12.5, 3.1 and 0.8 mg/kg) was “statistically significant increase in survival time”, the “survival rate vs placebo” value ([12]; 50, 12.5 and 3.1 mg/kg) was “statistically significantly increased” and the “relative potency to acycloguanosine as measured by survival” value ([12]; statistically significant) was 28.1. The “relative potency to acycloguanosine as measured by time to infection” value ([12]; statistically significant) was 4.14, the “sensitivity of HSV-2 Ts6” value [13] was “resistant” and the EC50 [14] was 15.5 µg/mL. It also gave an EC50 [15] of 0.34 µg/mL, an EC50 [16] of 0.05 µg/mL and an EC50 [17] of 0.08 µg/mL. It also gave an EC50 [18] of 0.07 µg/mL and an EC50 [19] of 0.1 µg/mL.

For `Nc1nc2c(ncn2COC2COP(=O)(O)OC2)c(=O)[nH]1` (stereo not shown) [Cyclic Monophosphate, Potassium 9-(1,3-dihydroxy-2-propoxymethyl)guanine cyclic monophosphate], the “solubility compared to compound of Formula II and acyclovir” value ([1]; qualitative statement) was “readily soluble”, the EC50 ([4]; MRC5, read-out: ED50, concentration required for 50% plaque inhibition) was 3 to 6 µg/mL and the “more active than acyclovir” value [5] was “approximately 10 fold”. The “potency relative to compound of Formula II” value [5] was “equipotent”, the EC50 ([5]; Human betaherpesvirus 5, AD169, MRC5, read-out: ED50, concentration required for 50% plaque inhibition) was 0.8 µg/mL and the “in vitro effectiveness against Varicella Zoster virus relative to acyclovir or compound of Formula II” value [6] was “substantially more effective”. The “more active than either compound of Formula II or acyclovir” value [6] was “approximately 10 fold”, the EC50 ([6]; Human alphaherpesvirus 3, MRC5, read-out: ED50, concentration required for 50% plaque inhibition) was 0.4 to 0.8 µg/mL and the EC50 [7] was 6 to 12 µg/mL. The “inhibition of DNA virus” value ([7]; vaccinia) was “inhibitory”, the EC50 [8] was 3 µg/mL and the “inhibition of DNA virus” value ([8]; adenovirus) was “inhibitory”. For the same molecule, the EC50 [9, 20] was 12.5 µg/mL, the EC50 [9, 21] was 25 to 50 µg/mL and the “Mean Survival Time (± SD)” value [10] was 13.42 (0.82). For the same molecule, the “efficacy against HSV-1 (383R1) relative to wild type HSV-1” value [10] was “equally effective”, the “sensitivity of HSV-2 Ts6” value [13] was “sensitive” and the EC50 [14] was 0.4 µg/mL. For the same molecule, the EC50 [15] was 0.9 µg/mL, the EC50 [16] was 1.1 µg/mL and the EC50 [17] was 0.3 µg/mL. The EC50 [18] was 6.3 µg/mL and the EC50 [19] was 4.7 µg/mL.
